pIC50: −log10 of the molar value.
How the values were obtained:
[1] = target: Casein kinase I isoform delta (Homo sapiens) (UniProt P48730); assay: Inhibition of CK1d (unknown origin) at 30 uM by microfluidic assay relative to control
[2] = target: RAC-beta serine/threonine-protein kinase (Homo sapiens) (UniProt P31751); assay: Inhibition of AKT2 (unknown origin) at 30 uM by microfluidic assay relative to control
[3] = target: Mitogen-activated protein kinase 3 (Homo sapiens) (UniProt P27361); assay: Inhibition of Erk1 (unknown origin) at 30 uM by microfluidic assay relative to control
Chain of Mitogen-activated protein kinase 3 (Homo sapiens) (P27361 whole entry): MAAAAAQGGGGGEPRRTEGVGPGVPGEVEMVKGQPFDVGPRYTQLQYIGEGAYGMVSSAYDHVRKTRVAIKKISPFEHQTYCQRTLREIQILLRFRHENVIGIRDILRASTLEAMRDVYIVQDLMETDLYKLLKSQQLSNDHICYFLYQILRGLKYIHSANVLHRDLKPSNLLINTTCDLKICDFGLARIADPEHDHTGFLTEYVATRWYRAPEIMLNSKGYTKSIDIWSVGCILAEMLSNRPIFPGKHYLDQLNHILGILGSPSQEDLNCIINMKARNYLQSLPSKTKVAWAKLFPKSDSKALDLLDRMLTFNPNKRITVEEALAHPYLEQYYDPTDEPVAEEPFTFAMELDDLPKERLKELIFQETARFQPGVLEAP

[4] = target: T1, Serine/threonine-protein kinase Chk1 (Homo sapiens, UniProt O14757); assay: Inhibition of CHK1 (unknown origin) by microfluidic assay relative to control
T1 sequence (O14757 whole entry): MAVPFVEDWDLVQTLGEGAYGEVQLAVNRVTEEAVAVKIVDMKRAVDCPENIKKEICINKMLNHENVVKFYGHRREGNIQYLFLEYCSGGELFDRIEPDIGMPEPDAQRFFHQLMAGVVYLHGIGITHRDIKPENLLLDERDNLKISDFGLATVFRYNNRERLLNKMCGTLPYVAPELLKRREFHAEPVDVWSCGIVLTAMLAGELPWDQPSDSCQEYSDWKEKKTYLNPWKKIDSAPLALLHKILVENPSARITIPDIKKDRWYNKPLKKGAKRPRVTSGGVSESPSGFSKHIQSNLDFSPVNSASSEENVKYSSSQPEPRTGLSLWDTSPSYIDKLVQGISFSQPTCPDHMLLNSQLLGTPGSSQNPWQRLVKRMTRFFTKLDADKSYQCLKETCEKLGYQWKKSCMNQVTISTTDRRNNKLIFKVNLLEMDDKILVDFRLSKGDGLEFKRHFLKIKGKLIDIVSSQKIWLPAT

[5] = target: T2, MAP kinase-activated protein kinase 5 (Homo sapiens) (UniProt Q8IW41); assay: Inhibition of MAPKAPK5 (unknown origin) at 30 uM by microfluidic assay relative to control
T2 sequence (whole entry): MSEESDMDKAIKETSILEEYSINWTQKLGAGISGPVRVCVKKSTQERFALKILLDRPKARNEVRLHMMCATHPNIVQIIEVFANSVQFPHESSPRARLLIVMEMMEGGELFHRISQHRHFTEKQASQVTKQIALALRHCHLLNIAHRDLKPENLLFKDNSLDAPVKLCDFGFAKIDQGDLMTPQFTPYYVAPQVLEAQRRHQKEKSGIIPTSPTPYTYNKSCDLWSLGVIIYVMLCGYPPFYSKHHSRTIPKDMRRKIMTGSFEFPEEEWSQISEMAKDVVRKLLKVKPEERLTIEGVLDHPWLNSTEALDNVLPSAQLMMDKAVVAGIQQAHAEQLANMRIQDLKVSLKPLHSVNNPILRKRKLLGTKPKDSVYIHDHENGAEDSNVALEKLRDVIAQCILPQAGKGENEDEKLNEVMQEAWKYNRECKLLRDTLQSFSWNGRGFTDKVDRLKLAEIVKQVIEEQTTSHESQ

[6] = target: Protein kinase C (PKC) (Homo sapiens) (UniProt O94806+P41743+P17252+P05129+Q05655+P05771+Q05513+Q02156+P24723+Q15139+Q04759); assay: Inhibition of PKC (unknown origin) at 30 uM by microfluidic assay relative to control
[7] = target: T3, Aurora kinase A (Homo sapiens) (UniProt O14965); assay: Inhibition of AurA (unknown origin) at 30 uM by microfluidic assay relative to control
T3 sequence (whole entry): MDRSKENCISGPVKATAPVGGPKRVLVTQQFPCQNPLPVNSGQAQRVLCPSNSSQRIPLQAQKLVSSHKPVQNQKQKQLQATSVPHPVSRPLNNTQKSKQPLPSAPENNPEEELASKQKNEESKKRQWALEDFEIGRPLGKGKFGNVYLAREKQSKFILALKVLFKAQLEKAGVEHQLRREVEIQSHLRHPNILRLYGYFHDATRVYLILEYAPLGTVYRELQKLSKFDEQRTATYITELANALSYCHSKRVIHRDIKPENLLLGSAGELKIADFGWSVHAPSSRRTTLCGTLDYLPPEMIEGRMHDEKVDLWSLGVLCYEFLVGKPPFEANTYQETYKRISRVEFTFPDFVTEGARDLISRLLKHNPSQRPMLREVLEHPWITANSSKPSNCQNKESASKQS

[8] = target: T4, Serine/threonine-protein kinase Chk1 (Homo sapiens) (UniProt O14757); assay: Inhibition of CHK1 (unknown origin) at 30 uM by microfluidic assay relative to control
T4 sequence (whole entry): T1 sequence (O14757 whole entry)

[9] = target: Proto-oncogene tyrosine-protein kinase Src (Homo sapiens) (UniProt P12931); assay: Inhibition of SRC (unknown origin) at 30 uM by microfluidic assay relative to control
[10] = target: MAP kinase-activated protein kinase 2 (Homo sapiens) (UniProt P49137); assay: Inhibition of MK2 (unknown origin) at 30 uM by microfluidic assay relative to control
[11] = target: Tyrosine-protein kinase Fyn (Homo sapiens) (UniProt P06241); assay: Inhibition of FYN (unknown origin) at 30 uM by microfluidic assay relative to control
[12] = target: Ribosomal protein S6 kinase alpha-1 (Homo sapiens) (UniProt Q15418); assay: Inhibition of RSK1 (unknown origin) at 30 uM by microfluidic assay relative to control
Chain of Ribosomal protein S6 kinase alpha-1 (Homo sapiens) (Q15418 whole entry): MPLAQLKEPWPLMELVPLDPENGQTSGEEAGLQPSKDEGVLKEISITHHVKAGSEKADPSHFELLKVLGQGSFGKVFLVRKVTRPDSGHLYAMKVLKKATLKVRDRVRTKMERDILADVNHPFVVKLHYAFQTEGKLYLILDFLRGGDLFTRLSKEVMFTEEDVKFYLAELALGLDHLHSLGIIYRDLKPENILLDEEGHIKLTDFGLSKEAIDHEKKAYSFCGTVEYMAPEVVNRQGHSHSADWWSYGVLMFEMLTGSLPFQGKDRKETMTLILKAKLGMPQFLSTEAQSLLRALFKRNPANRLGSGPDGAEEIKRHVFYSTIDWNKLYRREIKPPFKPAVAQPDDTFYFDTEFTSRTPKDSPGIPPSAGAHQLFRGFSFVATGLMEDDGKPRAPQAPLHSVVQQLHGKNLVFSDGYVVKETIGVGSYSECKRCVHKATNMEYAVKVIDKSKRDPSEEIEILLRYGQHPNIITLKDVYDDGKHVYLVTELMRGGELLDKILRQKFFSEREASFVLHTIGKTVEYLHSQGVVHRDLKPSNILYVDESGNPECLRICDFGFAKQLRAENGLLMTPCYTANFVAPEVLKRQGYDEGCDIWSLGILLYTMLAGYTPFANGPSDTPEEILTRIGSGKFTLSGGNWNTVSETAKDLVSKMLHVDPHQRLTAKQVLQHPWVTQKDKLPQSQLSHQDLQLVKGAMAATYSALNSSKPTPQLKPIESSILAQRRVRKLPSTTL

[13] = target: Tyrosine-protein kinase ABL1 (Homo sapiens) (UniProt P00519); assay: Inhibition of ABL (unknown origin) at 30 uM by microfluidic assay relative to control
[14] = target: Mitogen-activated protein kinase 1 (Homo sapiens) (UniProt P28482); assay: Inhibition of Erk2 (unknown origin) at 30 uM by microfluidic assay relative to control
[15] = target: RAC-alpha serine/threonine-protein kinase (Homo sapiens) (UniProt P31749); assay: Inhibition of AKT1 (unknown origin) at 30 uM by microfluidic assay relative to control
Chain of RAC-alpha serine/threonine-protein kinase (Homo sapiens) (P31749 whole entry): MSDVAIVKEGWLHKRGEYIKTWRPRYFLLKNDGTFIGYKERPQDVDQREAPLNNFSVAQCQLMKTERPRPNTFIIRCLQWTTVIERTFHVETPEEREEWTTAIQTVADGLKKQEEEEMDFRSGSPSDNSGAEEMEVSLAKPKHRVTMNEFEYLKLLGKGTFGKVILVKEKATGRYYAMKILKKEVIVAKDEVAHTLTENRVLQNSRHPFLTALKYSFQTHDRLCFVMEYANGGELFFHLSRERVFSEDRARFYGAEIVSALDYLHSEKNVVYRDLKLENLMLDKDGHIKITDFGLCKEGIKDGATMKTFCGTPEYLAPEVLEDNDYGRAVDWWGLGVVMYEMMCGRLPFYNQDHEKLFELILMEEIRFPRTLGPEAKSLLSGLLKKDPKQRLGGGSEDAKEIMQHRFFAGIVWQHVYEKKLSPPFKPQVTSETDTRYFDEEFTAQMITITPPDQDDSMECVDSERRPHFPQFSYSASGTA

[16] = target: Tyrosine-protein kinase Lck (Homo sapiens) (UniProt P06239); assay: Inhibition of LCK (unknown origin) at 30 uM by microfluidic assay relative to control
Chain of Tyrosine-protein kinase Lck (Homo sapiens) (P06239 2-509 limits assumed): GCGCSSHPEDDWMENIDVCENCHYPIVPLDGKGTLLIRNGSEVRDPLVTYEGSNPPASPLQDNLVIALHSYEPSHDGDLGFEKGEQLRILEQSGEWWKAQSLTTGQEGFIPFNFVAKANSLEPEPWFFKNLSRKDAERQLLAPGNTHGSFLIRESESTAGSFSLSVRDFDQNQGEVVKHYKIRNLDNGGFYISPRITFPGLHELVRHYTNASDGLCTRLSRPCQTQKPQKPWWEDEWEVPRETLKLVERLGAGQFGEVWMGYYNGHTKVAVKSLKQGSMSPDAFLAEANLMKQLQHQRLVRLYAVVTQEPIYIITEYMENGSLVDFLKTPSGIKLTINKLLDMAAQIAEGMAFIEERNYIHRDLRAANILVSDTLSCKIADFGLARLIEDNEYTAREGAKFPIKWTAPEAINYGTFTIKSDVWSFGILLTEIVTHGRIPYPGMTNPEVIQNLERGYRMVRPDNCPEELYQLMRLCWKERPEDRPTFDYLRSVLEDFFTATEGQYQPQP

[17] = target: Ribosomal protein S6 kinase alpha-5 (Homo sapiens) (UniProt O75582); assay: Inhibition of MSK1 (unknown origin) at 30 uM by microfluidic assay relative to control
[18] = target: Serine/threonine-protein kinase Chk2 (Homo sapiens) (UniProt O96017); assay: Inhibition of CHK2 (unknown origin) at 30 uM by microfluidic assay relative to control
Chain of Serine/threonine-protein kinase Chk2 (Homo sapiens) (O96017 whole entry): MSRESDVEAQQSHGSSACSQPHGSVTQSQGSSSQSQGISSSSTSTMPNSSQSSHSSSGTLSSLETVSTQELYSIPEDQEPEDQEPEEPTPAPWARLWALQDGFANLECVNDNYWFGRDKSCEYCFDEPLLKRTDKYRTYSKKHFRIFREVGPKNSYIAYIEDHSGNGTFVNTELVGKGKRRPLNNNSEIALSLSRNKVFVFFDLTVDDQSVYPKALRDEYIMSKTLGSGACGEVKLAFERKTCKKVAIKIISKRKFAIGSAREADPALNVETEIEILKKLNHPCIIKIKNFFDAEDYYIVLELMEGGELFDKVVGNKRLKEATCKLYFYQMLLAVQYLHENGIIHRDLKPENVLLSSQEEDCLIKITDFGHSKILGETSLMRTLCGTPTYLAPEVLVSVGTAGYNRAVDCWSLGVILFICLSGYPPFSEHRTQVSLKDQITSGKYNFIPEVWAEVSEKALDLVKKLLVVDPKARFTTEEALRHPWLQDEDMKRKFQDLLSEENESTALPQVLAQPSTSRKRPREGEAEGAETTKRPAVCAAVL

[19] = target: Glycogen synthase kinase-3 (Homo sapiens) (UniProt P49840+P49841); assay: Inhibition of GSK3 (unknown origin) at 30 uM by microfluidic assay relative to control; assay type: protein assay
[20] = target: Tyrosine-protein kinase Lyn (Homo sapiens) (UniProt P07948); assay: Inhibition of LYN (unknown origin) at 30 uM by microfluidic assay relative to control
Chain of Tyrosine-protein kinase Lyn (Homo sapiens) (P07948 2-512 limits assumed): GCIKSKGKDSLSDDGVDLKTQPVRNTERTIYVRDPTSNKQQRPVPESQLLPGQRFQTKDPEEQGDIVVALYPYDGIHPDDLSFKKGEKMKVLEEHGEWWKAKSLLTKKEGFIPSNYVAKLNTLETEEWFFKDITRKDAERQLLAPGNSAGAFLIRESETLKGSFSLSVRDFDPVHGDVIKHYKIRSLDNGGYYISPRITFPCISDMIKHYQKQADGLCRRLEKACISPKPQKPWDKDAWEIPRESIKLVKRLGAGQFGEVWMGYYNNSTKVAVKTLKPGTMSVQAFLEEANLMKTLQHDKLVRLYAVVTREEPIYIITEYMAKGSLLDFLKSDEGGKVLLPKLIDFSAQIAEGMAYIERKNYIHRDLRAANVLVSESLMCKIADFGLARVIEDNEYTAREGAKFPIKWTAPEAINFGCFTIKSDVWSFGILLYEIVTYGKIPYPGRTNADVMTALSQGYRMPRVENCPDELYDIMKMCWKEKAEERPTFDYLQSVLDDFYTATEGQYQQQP

[21] = target: Hepatocyte growth factor receptor (Homo sapiens) (UniProt P08581); assay: Inhibition of MET (unknown origin) at 30 uM by microfluidic assay relative to control
Chain of Hepatocyte growth factor receptor (Homo sapiens) (P08581 whole entry): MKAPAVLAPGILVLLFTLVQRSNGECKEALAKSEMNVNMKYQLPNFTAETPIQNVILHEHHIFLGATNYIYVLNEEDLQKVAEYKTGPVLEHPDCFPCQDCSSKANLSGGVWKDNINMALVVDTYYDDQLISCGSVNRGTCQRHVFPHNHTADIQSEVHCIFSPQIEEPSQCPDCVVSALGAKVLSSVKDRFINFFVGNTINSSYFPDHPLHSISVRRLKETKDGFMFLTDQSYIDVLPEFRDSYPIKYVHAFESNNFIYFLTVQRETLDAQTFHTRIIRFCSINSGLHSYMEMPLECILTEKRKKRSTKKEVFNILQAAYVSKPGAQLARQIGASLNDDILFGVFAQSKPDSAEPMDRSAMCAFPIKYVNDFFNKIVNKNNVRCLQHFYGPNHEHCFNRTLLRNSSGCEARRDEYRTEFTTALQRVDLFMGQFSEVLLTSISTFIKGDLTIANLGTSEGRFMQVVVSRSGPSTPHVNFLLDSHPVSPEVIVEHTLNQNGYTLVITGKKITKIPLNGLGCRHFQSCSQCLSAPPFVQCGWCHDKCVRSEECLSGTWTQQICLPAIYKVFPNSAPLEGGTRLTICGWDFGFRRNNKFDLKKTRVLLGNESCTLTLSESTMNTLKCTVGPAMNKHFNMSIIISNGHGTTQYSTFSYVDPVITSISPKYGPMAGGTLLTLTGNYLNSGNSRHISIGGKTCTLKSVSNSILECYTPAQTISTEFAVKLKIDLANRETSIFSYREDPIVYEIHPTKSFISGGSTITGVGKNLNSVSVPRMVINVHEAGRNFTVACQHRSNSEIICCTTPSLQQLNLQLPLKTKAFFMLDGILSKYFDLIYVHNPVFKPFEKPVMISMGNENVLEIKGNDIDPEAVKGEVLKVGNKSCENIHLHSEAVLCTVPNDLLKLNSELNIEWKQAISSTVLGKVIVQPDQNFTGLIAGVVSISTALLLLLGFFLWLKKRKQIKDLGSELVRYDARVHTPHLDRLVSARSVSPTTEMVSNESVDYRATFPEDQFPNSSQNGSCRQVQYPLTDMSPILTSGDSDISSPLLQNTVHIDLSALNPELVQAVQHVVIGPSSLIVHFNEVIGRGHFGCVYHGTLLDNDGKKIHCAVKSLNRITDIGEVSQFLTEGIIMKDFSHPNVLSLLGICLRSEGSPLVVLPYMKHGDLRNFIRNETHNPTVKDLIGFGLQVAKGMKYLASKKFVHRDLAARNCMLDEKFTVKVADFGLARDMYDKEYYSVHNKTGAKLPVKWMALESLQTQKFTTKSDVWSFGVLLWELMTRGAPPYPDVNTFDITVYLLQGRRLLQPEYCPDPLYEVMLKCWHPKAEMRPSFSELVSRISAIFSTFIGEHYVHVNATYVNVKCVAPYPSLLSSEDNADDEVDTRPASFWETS

Chain of RAC-beta serine/threonine-protein kinase (Homo sapiens) (P31751 whole entry): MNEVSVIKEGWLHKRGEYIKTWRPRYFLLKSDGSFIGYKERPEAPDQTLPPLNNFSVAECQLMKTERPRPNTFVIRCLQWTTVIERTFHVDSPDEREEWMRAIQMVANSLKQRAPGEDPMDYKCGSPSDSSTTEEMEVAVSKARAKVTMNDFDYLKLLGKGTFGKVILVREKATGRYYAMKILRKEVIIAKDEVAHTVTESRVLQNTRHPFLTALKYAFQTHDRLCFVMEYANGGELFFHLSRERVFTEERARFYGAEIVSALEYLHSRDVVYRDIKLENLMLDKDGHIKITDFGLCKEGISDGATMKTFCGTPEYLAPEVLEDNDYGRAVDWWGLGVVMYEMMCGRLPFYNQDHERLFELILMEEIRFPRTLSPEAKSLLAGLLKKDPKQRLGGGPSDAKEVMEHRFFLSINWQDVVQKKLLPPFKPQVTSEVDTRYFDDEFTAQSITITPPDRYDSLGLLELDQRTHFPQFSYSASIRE

Structure (SMILES) | inhibition [1] [%] | inhibition [2] [%] | inhibition [3] [%] | pIC50 [4] | inhibition [5] [%] | inhibition [6] [%] | inhibition [7] [%] | inhibition [8] [%] | inhibition [9] [%] | inhibition [10] [%] | inhibition [11] [%] | inhibition [12] [%] | inhibition [13] [%] | inhibition [14] [%] | inhibition [15] [%] | inhibition [16] [%] | inhibition [17] [%] | inhibition [18] [%] | inhibition [19] [%] | inhibition [20] [%] | other results
Cc1[nH]c(-c2ccccc2)c(-c2ccccc2)c1C(=O)c1coc2c1cc(O)c1ccccc12 | 22 | 56 | 3 | 6.51 | 54 | 34 | 23 | 96 | 21 | 76 | 21 | 4 | 4 | 21 | 13 | 32 | 34 | 55 | 2 | 34 | inhibition [21]: 34%
Cc1[nH]c(-c2ccccc2)c(-c2ccccc2)c1-c1nnc(O)c2nn(-c3ccccc3)cc12 | 53 | 56 | 8 | 6.16 | 32 | 63 | 32 | 84 | 23 | 19 | 12 | 36 | 5 | 23 | 90 | 32 | 34 | 24 | 43 | 5 | inhibition [21]: 4%
Cc1[nH]c(-c2ccccc2)c(-c2ccccc2)c1C(=O)c1cn(-c2ccccc2)nc1C(=O)Nc1ccccc1 | 43 | 86 | 8 | 6.10 | 54 | 44 | 2 | 80 | 33 | 26 | 21 | 2 | 32 | 24 | 45 | 25 | 87 | 4 | 23 | 24 | inhibition [21]: 3%

From ChEMBL document CHEMBL3739348, “Novel pyrrole derivatives as selective CHK1 inhibitors: design, regioselective synthesis and molecular modeling” (Medchemcomm, 2015)
